Results on 13 compounds are retold here after ChEMBL document CHEMBL5335778, “Bench-to-bedside: Innovation of small molecule anti-SARS-CoV-2 drugs in China” (Eur J Med Chem, 2023).

As a reminder, the EC50 is the concentration that produces a half-maximal response. As a reminder, the bioavailability is dose-corrected exposure relative to a reference, in per cent. One may read the CC50 as the concentration giving 50% cytotoxicity. What is called IC50 is the concentration needed to halve the response being measured. One may read the fraction unbound as free concentration divided by total concentration.

Data set [1] concerns Human immunodeficiency virus 1. Put plainly: Antiviral activity against HIV-1 3B infected in human MT4 cells assessed as reduction in virus-induced cytopathic effect incubated for 5 days by MTT assay. The class given is functional, organism-based. The note with it: Human immunodeficiency virus 1, 3B, MT4, 120 h.
Data set [2] in a line: Oral bioavailability in rat. The class given is ADME, organism-based. The following applies: in vivo.
Data set [3] is described as follows: Cytotoxicity against human MT4 cells assessed as reduction in cell viability treated for 5 days by MTT assay. The data set is classed as toxicity, cell-based. The note with it: time 5 day. Background: Tetrazolium dyes change colour on reduction, which living cells bring about.
The subject of data set [4] is SARS-CoV-2. In words: Antiviral activity against SARS-CoV-2 Omicron assessed as reduction of viral growth. The data set is classed as functional, organism-based. The note with it: Severe acute respiratory syndrome coronavirus 2, Omicron.
Data set [5] concerns the target Human immunodeficiency virus type 1 protease (Human immunodeficiency virus 1, UniProt Q72874). In words: Inhibition of HIV-1 protease.
Data set [6] relates to SARS-CoV-2. In words: Antiviral activity against SARS-CoV-2 infected in human A549-ACE2 cells. The data set is classed as functional, organism-based. The following applies: Severe acute respiratory syndrome coronavirus 2, A549-ACE2.
The test system of data set [7] is SARS-CoV-2. In words: Antiviral activity against SARS-Co-V-2 infected in Vero E6 cells assessed as reduction in viral replication. The note with it: Severe acute respiratory syndrome coronavirus 2, Vero C1008. The data set is classed as functional, organism-based.
The subject of data set [8] is SARS-CoV-2. Put plainly: Antiviral activity against SARS-CoV-2 in human A549-ACE2 cells assessed as reduction in viral growth. The class given is functional, organism-based. The note with it: Severe acute respiratory syndrome coronavirus 2, A549-ACE2.
In the next data set the test system is Hepatitis C virus. Put plainly: Antiviral activity against HCV infected in human Huh-7.5.1 cells assessed as reduction in viral infection incubated for 48 hrs by MTS assay. The class given is functional, organism-based, Hepacivirus hominis. The following applies: Huh-7.5.1, 48 h.
In data set [9] the test system is SARS-CoV-2. In words: Antiviral activity against SARS-CoV-2 B.1 infected in Green monkey VeroE6/TMPRSS2 cells assessed as inhibition of viral replication incubated for 2 days by qRT-PCR analysis. The data set is classed as functional, organism-based. The note with it: Severe acute respiratory syndrome coronavirus 2, B.1, VeroE6/TMPRSS2, 48 h.
Data set [10] can be described thus: Inhibition of DENV RNA-dependent RNA polymerase activity. The arrangement: species or system Dengue virus.
Data set [11] is described as follows: Oral bioavailability in Beagle dog at 3 mg/kg. The class given is ADME, organism-based, Canis lupus familiaris. The following applies: in vivo.
A short description of data set [12]: Cytotoxicity against African green monkey Vero E6 cells assessed as cell growth inhibition measured after 48 hrs by CCK-8 assay. The class given is toxicity, cell-based, Vero C1008. The following applies: chlorocebus sabaeus.
Data set [13] deals with SARS-CoV-2. Put plainly: Antiviral activity against SARS-COV-2 infected in African green monkey Vero E6 cells assessed as reduction in viral growth. The class given is functional, organism-based. The following applies: Severe acute respiratory syndrome coronavirus 2, Vero C1008.
Data set [14] can be described thus: Plasma protein binding in rat assessed as free fraction by equilibrium dialysis analysis. The class given is ADME, cell-free.
The subject of data set [15] is SARS-CoV-2. In words: Antiviral activity against SARS-CoV-2 infected in African green monkey Vero E6 cells assessed as reduction in infection measured after 24 hrs by Plaque assay. The data set is classed as functional, organism-based. The following applies: Severe acute respiratory syndrome coronavirus 2, Vero C1008, 24 h.
Data set [16] is described as follows: Oral bioavailability in human at 2 mg. The data set is classed as ADME, organism-based. The note with it: in vivo.
A short description of data set [17]: Oral bioavailability in Sprague-Dawley rat at 3 mg/kg by HPLC analysis. The class given is ADME, organism-based. The note with it: in vivo.
Data set [18] can be described thus: Selectivity index, ratio of CC50 for African green monkey Vero cells to EC50 for SARS-COV-2. The data set is classed as cell-based. The note with it: read-out: Ratio CC50/EC50.
Data set [19] can be described thus: Oral bioavailability in rat at 2 mg/kg by LC-MS/MS analysis. The class given is ADME, organism-based. The following applies: in vivo.
Data set [20] can be described thus: Oral bioavailability in monkey at 3 mg/kg, HPLC analysis. The note with it: rhesus monkey, in vivo. The data set is classed as ADME, organism-based, Macaca mulatta.
Data set [21] relates to SARS-CoV-2. In words: Antiviral activity against SARS-CoV-2 infected in human A549-ACE2 cells assessed as reduction in viral replication. The note with it: Severe acute respiratory syndrome coronavirus 2, A549-ACE2. The data set is classed as functional, organism-based.
Data set [22] concerns SARS-CoV-2. Put plainly: Antiviral activity against luciferase-expressing pseudovirus encoding SARS-CoV-2 Omicron expressing S protein infected in human 293T/ACE2 cells assessed as reduction of viral growth measured after 48 hrs by luciferase assay. The class given is functional, organism-based. The note with it: Severe acute respiratory syndrome coronavirus 2, 293T/ACE2, 48 h.

Data set [23] deals with SARS-CoV-2. In words: Antiviral activity against SARS-CoV-2 infected in African green monkey Vero E6 cells assessed as reduction in cell growth. The data set is classed as functional, organism-based. The note with it: Severe acute respiratory syndrome coronavirus 2, Vero C1008.
Data set [24] concerns Respiratory syncytial virus. In words: Antiviral activity against Respiratory syncytial virus. The class given is functional, organism-based. The note with it: human respiratory syncytial virus.
Data set [25] in a line: Inhibition of HIV-1 […]. The arrangement: species or system Human immunodeficiency virus 1.
Another data set concerns the target Replicase polyprotein 1a (Severe acute respiratory syndrome-related coronavirus, UniProt P0C6U8). In words: Inhibition of SARS-CoV 3CLpro.
Data set [26] has as its target Replicase polyprotein 1ab (Severe acute respiratory syndrome coronavirus 2, UniProt P0DTD1). In words: Inhibition of N-terminal His6-tagged recombinant full length SARS-CoV-2 3CLpro expressed in Escherichia coli BL21(DE3) using MCA-AVLQSGFR-Lys(Dnp)-Lys-NH2 as fluorogenic substrate preincubated with compound for 10 mins followed by substrate addition by FRET assay.

In data set [27] the test system is SARS-CoV-2. In words: Antiviral activity against SARS-CoV-2 infected in Vero E6 cells assessed as reduction in viral replication. The class given is functional, organism-based. The following applies: Severe acute respiratory syndrome coronavirus 2, Vero C1008.

With `[2H]c1cc([C@]2(C#N)O[C@H](CO)[C@@H](O)[C@H]2O)n2ncnc(N)c12`, in data set [1], the EC50 was determined as 390 nM. The same compound displayed a bioavailability in data set [2] of 21.7%. Besides, the CC50 at 120 h in data set [3] is more than 500000 nM.
Turning to `O=C1C=C(Nc2ccccc2C2CCNCC2)C2=NS(=O)(=O)c3cccc1c32`, the EC50 with SARS-CoV-2 [4] came out at 33 nM.
Compound `[N-]=[N+]=N[C@]1(CO)O[C@@H](n2ccc(N)nc2=O)[C@H](O)[C@@H]1O` [4'-AZIDOCYTIDINE] yielded an IC50 in data set [5] of 1280 nM.
Turning to `COc1ccc2cc1Oc1ccc(cc1)C[C@H]1c3c(cc4c(c3Oc3cc5c(cc3OC)CCN(C)[C@@H]5C2)OCO4)CCN1C` [CEPHARANTHINE], the IC50 with SARS-CoV-2 [6] was 240 nM; in the data set on SARS-CoV-2 [8], 240 nM; in the data set on Hepatitis C virus, 60 nM; with SARS-CoV-2 [9], 1900 nM. In addition, the EC50 in the data set on SARS-CoV-2 [7] was 980 nM.
As to `Br.[2H]c1cc([C@]2(C#N)O[C@H](COC(=O)C(C)C)[C@@H](OC(=O)C(C)C)[C@H]2OC(=O)C(C)C)n2ncnc(N)c12` [DEUREMIDEVIR HYDROBROMIDE], the EC50 in data set [1] and in [10] was 240 nM each time. Also, the bioavailability in data set [11] and in [2] was 80% each time.
Regarding `CC[C@H](C)[C@@H](C(=O)O[C@@H](CC(C)C)C(=O)N[C@@H](CC(C)C)C(=O)N[C@@H](C)/C=C/C(=O)N1C(=O)C=C(OC)[C@@H]1C)N(C)C` [GALLINAMIDE A], the CC50 at 48 h in data set [12] worked out at 88 nM. In addition, the EC50 with SARS-CoV-2 [13] is 28 nM.
`N#C[C@@]1(c2ccc3c(N)ncnn23)O[C@H](CO)[C@@H](O)[C@H]1O` [GS-441524]: the fraction unbound in [14] amounted to 0.62. For the same compound, the EC50 in data set [1] was found to be 590 nM; in the data set on SARS-CoV-2 [15], 390 nM. The bioavailability in [16] is 13%; in data set [17], 16%; in [19], 50%; in [20], less than 8%. Further, the selectivity ratio in [18] is more than 1280. Besides, the CC50 at 120 h in [3] is more than 500000 nM.
Regarding `CC[C@H](C)[C@H]1NC(=O)[C@@H](NC(=O)[C@@H](CC(C)C)N(C)C(=O)[C@@H]2CCCN2C(=O)C(C)=O)[C@@H](C)OC(=O)[C@H](Cc2ccc(OC)cc2)N(C)C(=O)[C@@H]2CCCN2C(=O)[C@H](CC(C)C)NC(=O)[C@@H](C)C(=O)[C@H](C(C)C)OC(=O)C[C@@H]1O` [PLITIDEPSIN], the EC50 with SARS-CoV-2 [21] stood at 100 nM; in the data set on SARS-CoV-2 [22], 350 nM; in the data set with SARS-CoV-2 [23] it was 0.7 nM.
`N#C[C@@]1(c2ccc3c(N)ncnn23)O[C@H](COP(=O)(O)OP(=O)(O)OP(=O)(O)O)[C@@H](O)[C@H]1O` [RDV-TP] gave an EC50 in [24] of 13 nM.
Take `[N-]=[N+]=N[C@]1(CO)O[C@@H](n2ccc(N)nc2=O)[C@@H](F)[C@@H]1O` [RO-0622]: in [25], a half-maximal response (EC50) required 1200 nM.
As to `O=C(OC[C@H]1O[C@@H](OC(=O)c2cc(O)c(O)c(OC(=O)c3cc(O)c(O)c(O)c3)c2)[C@H](OC(=O)c2cc(O)c(O)c(OC(=O)c3cc(O)c(O)c(O)c3)c2)[C@@H](OC(=O)c2cc(O)c(O)c(OC(=O)c3cc(O)c(O)c(O)c3)c2)[C@@H]1OC(=O)c1cc(O)c(O)c(OC(=O)c2cc(O)c(O)c(O)c2)c1)c1cc(O)c(O)c(OC(=O)c2cc(O)c(O)c(O)c2)c1` [TANNIC ACID], the EC50 at Replicase polyprotein 1a was 8310 nM; in data set [26], 585 nM; in the data set on SARS-CoV-2 [27], 12900 nM.
On to `N#Cc1cn([C@@H]2O[C@H](CO)[C@@H](O)[C@H]2O)c2ncnc(N)c12` [TOYOCAMYCIN], for which, in the data set with SARS-CoV-2 [15], the EC50 stood at 590 nM.
Regarding `Nc1ncnc2c1ccn2[C@@H]1O[C@H](CO)[C@@H](O)[C@H]1O` [TUBERCIDIN], the EC50 in the data set on SARS-CoV-2 [15] came out at 590 nM.
